What all share (conditions): read-out: IZ
For assay [1], the system named is Aspergillus niger. Briefly: Antifungal activity against Aspergillus niger at 50 ug after 48 hrs by agar well diffusion assay. The class given is functional.
Assay [2] relates to Candida albicans. The assay can be described thus: Antifungal activity against Candida albicans at 50 ug after 48 hrs by agar well diffusion assay. The class given is functional. (A growth-free zone around the sample is the usual read-out of agar diffusion tests.)
For assay [3], the system named is Bacillus cirroflagellosus. Briefly: Antibacterial activity against Bacillus cirroflagellosus at 50 ug after 48 hrs by agar well diffusion assay.
Assay [4] relates to Escherichia coli. The assay can be described thus: Antibacterial activity against Escherichia coli at 50 ug after 48 hrs by agar well diffusion assay. The format is functional.

Experimental findings from ChEMBL document CHEMBL1177879, “Transition metal complexes of a new hexadentate macroacyclic N2O4-donor Schiff base: inhibitory activity against bacteria and fungi” (2010) are described below.

The structures appear in SMILES notation.

Consider `O=NN(CC(=O)N/N=C\C=N\NC(=O)CN(N=O)c1ccccc1)c1ccccc1`, for which the zone of inhibition at 50 µg/disc in assay [1] was found to be 16.7 mm; in assay [2], 19.3 mm; in assay [3] it was 16 mm; in assay [4], 16.3 mm.
For `COC1=CC(=O)C[C@@H](C)[C@]12Oc1c(Cl)c(OC)cc(OC)c1C2=O` [GRISEOFULVIN], the zone of inhibition at 50 µg/disc in assay [1] stood at 29 mm; in assay [2], 29.3 mm.
On to `CCn1cc(C(=O)O)c(=O)c2cc(F)c(N3CCNCC3)cc21` [NORFLOXACIN], for which the zone of inhibition at 50 µg/disc in assay [3] and in assay [4] was 28.3 mm each time.
